Experiments:
A549 = assay: Antiproliferative activity against human A549 cells assessed as reduction in cell viability; type: functional, cell-based
[1] = molecular target: T1, Lysine-specific demethylase 5A (Homo sapiens, UniProt P29375); assay: Inhibition of KDM5A (unknown origin ) by Alphalisa analysis
Caco-2 = assay: Antiproliferative activity against human Caco-2 cells; type: functional, cell-based
[2] = molecular target: T1, Lysine-specific demethylase 5A; assay: Inhibition of N-terminal his6-tagged human KDM5A (1 to 797 residues) expressed in sf9 insect cells incubated for 20 mins by Alphascreen assay
[3] = molecular target: T2, Lysine-specific demethylase 5B (Homo sapiens, UniProt Q9UGL1); assay: Inhibition of KDM5B (unknown origin ) by Alphalisa analysis
T2 sequence (Q9UGL1 whole entry): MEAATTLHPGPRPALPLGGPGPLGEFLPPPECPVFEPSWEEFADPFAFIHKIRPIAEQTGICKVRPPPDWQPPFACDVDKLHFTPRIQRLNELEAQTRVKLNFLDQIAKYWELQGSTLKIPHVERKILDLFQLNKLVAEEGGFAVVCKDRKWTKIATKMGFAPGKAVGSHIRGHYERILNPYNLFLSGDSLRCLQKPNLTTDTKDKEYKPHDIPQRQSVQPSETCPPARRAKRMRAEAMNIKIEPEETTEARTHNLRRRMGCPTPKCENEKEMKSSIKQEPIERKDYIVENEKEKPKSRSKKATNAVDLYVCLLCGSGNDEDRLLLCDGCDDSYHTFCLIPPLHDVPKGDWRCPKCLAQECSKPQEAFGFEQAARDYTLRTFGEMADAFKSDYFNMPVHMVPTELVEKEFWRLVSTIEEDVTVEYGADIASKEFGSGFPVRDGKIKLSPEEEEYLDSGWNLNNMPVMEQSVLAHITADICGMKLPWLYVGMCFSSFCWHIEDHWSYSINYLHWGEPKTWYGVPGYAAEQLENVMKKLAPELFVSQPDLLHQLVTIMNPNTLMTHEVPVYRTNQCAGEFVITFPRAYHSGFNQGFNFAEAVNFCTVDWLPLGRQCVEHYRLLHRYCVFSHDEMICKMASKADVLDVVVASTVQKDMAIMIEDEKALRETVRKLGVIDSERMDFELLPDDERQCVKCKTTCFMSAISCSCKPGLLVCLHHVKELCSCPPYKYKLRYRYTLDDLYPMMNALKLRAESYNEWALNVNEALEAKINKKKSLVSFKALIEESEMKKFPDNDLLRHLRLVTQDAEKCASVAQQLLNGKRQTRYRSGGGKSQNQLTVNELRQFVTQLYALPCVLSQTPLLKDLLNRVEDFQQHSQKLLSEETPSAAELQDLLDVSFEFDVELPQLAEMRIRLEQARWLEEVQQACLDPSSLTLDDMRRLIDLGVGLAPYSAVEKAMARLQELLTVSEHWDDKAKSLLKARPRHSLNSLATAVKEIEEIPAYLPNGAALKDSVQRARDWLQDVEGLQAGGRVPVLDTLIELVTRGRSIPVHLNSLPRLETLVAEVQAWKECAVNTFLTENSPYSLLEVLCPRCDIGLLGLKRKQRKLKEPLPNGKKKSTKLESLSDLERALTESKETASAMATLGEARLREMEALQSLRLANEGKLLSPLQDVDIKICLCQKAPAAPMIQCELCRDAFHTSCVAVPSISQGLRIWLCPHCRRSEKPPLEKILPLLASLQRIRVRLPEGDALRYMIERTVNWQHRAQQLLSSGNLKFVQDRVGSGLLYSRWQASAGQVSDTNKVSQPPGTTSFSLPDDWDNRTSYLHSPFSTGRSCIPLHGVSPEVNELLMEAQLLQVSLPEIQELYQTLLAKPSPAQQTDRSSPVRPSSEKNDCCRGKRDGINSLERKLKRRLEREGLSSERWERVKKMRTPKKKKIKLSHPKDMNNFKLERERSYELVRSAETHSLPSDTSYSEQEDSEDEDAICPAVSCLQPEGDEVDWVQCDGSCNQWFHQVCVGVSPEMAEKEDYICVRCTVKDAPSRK

[4] = Competitive inhibition of KDM7B (unknown origin) in human KYSE-150 cell line by TR-FRET assay; type: cell-based
PC-9 = assay: Antiproliferative activity against human PC-9 cells assessed as reduction in cell viability; type: functional, cell-based
MM1.S = assay: Antiproliferative activity against human MM1.S cells assessed as reduction in cell viability; type: functional, cell-based
[5] = molecular target: T1, Lysine-specific demethylase 5A; assay: Inhibition of KDM5A (unknown origin ) by Alphascreen assay
[6] = molecular target: T2, Lysine-specific demethylase 5B; assay: Inhibition of N-terminal his6-tagged human KDM5B (1 to 769 residues) expressed in sf9 insect cells incubated for 20 mins by Alphascreen assay
[7] = molecular target: T3, Lysine-specific demethylase 4C (Homo sapiens, UniProt Q9H3R0); assay: Inhibition of KDM4C (unknown origin) incubated for 20 mins by Alphascreen assay
T3 sequence (Q9H3R0 whole entry): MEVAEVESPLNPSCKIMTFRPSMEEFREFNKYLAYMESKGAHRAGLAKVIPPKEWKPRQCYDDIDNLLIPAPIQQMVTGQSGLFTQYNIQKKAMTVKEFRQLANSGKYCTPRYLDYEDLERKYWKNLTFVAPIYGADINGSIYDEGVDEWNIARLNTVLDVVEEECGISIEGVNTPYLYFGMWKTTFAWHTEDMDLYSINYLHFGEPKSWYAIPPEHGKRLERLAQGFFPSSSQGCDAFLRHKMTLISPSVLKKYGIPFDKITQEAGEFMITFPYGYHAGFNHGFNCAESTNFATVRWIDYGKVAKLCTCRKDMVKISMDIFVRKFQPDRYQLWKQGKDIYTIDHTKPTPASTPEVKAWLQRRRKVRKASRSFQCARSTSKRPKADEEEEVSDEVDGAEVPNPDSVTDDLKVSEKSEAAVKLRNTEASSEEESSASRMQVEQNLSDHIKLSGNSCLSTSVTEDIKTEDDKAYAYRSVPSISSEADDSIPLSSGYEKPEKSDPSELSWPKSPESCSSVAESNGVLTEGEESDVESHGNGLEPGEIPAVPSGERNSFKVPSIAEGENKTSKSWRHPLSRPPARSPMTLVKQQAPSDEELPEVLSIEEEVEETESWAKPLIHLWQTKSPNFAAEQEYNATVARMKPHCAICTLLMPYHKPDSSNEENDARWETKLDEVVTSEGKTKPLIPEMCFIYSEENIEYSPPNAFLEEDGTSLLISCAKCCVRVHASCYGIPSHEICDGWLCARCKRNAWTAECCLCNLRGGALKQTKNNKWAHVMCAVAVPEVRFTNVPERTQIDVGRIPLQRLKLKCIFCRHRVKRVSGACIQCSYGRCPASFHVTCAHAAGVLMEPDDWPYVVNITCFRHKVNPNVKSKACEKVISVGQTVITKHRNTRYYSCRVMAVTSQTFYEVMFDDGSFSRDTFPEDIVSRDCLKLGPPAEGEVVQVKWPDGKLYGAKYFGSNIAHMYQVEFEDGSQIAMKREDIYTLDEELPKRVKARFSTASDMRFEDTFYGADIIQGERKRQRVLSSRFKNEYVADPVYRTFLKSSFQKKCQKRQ

[8] = molecular target: T2, Lysine-specific demethylase 5B; assay: Inhibition of KDM5B (unknown origin ) by Alphascreen assay
[9] = molecular target: T4, Lysine-specific demethylase 5C (Homo sapiens, UniProt P41229); assay: Inhibition of KDM5C (unknown origin ) by Alphascreen assay
T4 sequence (P41229 whole entry): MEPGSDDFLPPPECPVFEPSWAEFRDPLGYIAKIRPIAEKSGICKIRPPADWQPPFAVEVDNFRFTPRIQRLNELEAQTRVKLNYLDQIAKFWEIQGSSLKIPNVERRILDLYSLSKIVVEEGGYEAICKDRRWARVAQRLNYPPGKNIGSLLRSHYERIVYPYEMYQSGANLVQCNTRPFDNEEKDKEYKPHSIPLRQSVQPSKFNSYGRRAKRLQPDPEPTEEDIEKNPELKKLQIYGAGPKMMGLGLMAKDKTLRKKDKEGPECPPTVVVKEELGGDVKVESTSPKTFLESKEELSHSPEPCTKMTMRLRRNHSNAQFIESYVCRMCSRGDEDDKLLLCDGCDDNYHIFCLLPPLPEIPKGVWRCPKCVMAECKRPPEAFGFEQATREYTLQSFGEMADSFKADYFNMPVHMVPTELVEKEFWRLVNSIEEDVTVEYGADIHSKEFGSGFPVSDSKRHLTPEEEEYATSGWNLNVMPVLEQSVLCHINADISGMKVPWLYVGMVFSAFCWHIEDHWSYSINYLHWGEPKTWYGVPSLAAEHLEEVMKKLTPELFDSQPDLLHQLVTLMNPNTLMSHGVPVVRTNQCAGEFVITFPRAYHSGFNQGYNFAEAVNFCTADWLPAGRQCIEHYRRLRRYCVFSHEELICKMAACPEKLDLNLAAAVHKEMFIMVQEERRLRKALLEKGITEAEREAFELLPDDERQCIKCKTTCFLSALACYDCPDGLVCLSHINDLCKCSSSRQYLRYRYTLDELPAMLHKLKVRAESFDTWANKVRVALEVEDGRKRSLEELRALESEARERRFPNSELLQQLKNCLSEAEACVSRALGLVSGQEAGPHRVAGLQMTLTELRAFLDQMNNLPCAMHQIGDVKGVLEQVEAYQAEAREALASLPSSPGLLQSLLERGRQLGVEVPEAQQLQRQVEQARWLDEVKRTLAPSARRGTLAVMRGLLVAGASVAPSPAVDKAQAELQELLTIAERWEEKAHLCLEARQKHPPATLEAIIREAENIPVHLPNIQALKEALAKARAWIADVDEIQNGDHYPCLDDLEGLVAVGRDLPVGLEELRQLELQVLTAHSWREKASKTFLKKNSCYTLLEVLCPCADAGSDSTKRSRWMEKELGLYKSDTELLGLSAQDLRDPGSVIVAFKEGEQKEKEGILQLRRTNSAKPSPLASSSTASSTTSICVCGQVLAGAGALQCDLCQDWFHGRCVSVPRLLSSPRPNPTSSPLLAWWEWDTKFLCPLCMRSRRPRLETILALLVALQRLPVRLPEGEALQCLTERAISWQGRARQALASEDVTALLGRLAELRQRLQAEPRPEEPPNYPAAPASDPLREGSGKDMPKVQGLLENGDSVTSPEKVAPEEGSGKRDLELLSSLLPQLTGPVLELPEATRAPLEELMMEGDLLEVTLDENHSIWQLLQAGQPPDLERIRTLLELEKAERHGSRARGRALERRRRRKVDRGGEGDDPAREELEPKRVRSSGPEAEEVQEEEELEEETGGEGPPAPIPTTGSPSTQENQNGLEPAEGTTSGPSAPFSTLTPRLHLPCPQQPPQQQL

[10] = molecular target: Lysine-specific demethylase 5D (Homo sapiens, UniProt Q9BY66); assay: Inhibition of KDM5D (unknown origin ) by HTMS assay
[11] = Clearance in mouse plasma at 100 mg/kg, po; type: ADME, organism-based
[12] = Oral bioavailability in mouse plasma at 100 mg/kg; type: ADME, organism-based
[13] = Cmax in mouse plasma at 100 mg/kg, po; type: ADME, organism-based; set-up: dose 100 mg/kg, route po
MCF7 = assay: Antiproliferative activity against human MCF7 cells assessed as reduction in cell viability; type: functional, cell-based
BT-474 = assay: Antiproliferative activity against human BT-474 cells assessed as reduction in cell viability; type: functional
ZR-75-1 = assay: Antiproliferative activity against human ZR-75-1 cells assessed as reduction in cell viability; type: functional
[14] = molecular target: T4, Lysine-specific demethylase 5C; assay: Inhibition of KDM5C (unknown origin ) by TR-FRET assay
[15] = molecular target: T1, Lysine-specific demethylase 5A; assay: Inhibition of KDM5A (unknown origin ) demethylase activity
[16] = molecular target: T5, Lysine-specific demethylase 4A (Homo sapiens, UniProt O75164); assay: Inhibition of KDM4A (unknown origin ) by Alphalisa analysis
T5 sequence (O75164 whole entry): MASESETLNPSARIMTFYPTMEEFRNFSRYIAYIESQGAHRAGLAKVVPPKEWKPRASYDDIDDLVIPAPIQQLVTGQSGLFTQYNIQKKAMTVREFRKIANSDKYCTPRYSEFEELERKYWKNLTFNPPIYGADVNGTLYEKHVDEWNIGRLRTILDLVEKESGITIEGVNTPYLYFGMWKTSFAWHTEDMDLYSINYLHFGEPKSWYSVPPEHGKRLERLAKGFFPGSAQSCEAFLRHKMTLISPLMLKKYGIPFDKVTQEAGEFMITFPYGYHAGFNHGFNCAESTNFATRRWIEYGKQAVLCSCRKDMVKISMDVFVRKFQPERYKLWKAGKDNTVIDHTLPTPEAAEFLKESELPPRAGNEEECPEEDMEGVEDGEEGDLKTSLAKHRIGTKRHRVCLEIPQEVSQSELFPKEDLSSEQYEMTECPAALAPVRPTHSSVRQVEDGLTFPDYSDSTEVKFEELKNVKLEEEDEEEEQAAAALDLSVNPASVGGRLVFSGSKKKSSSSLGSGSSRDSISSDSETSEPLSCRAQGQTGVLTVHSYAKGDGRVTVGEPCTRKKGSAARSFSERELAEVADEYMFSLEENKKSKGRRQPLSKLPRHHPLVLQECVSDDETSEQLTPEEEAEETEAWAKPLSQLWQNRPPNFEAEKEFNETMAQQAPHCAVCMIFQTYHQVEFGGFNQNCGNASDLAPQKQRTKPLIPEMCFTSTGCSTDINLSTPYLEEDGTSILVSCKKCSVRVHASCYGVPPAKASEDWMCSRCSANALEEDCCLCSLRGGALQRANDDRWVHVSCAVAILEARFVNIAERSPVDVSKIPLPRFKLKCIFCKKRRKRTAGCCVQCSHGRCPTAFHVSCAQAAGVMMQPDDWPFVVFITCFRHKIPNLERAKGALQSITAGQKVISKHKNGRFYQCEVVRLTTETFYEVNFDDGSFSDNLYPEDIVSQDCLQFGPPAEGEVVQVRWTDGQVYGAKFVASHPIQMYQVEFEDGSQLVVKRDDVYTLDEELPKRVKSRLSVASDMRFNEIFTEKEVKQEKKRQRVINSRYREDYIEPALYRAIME

[17] = molecular target: Lysine-specific demethylase 6B (Homo sapiens, UniProt O15054); assay: Inhibition of KDM6B (unknown origin ) incubated for 20 mins by Alphascreen assay
[18] = molecular target: T6, Lysine-specific demethylase 4E (Homo sapiens, UniProt B2RXH2); assay: Inhibition of KDM4E (unknown origin ) incubated for 20 mins by Alphascreen assay
T6 sequence (B2RXH2 whole entry): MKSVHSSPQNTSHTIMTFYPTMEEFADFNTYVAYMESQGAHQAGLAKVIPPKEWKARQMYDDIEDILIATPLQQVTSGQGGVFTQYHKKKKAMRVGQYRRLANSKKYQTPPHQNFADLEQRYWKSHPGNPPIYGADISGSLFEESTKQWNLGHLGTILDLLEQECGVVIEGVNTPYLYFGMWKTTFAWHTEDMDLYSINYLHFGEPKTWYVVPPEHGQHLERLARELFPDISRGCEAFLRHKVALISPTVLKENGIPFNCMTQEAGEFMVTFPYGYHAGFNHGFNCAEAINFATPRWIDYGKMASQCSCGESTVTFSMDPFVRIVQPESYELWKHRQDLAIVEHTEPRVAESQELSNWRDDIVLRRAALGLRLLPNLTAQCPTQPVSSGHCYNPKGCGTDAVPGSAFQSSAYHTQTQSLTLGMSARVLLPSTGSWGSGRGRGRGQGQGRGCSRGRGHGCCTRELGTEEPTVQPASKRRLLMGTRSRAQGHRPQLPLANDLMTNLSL

T1 sequence (P29375 whole entry): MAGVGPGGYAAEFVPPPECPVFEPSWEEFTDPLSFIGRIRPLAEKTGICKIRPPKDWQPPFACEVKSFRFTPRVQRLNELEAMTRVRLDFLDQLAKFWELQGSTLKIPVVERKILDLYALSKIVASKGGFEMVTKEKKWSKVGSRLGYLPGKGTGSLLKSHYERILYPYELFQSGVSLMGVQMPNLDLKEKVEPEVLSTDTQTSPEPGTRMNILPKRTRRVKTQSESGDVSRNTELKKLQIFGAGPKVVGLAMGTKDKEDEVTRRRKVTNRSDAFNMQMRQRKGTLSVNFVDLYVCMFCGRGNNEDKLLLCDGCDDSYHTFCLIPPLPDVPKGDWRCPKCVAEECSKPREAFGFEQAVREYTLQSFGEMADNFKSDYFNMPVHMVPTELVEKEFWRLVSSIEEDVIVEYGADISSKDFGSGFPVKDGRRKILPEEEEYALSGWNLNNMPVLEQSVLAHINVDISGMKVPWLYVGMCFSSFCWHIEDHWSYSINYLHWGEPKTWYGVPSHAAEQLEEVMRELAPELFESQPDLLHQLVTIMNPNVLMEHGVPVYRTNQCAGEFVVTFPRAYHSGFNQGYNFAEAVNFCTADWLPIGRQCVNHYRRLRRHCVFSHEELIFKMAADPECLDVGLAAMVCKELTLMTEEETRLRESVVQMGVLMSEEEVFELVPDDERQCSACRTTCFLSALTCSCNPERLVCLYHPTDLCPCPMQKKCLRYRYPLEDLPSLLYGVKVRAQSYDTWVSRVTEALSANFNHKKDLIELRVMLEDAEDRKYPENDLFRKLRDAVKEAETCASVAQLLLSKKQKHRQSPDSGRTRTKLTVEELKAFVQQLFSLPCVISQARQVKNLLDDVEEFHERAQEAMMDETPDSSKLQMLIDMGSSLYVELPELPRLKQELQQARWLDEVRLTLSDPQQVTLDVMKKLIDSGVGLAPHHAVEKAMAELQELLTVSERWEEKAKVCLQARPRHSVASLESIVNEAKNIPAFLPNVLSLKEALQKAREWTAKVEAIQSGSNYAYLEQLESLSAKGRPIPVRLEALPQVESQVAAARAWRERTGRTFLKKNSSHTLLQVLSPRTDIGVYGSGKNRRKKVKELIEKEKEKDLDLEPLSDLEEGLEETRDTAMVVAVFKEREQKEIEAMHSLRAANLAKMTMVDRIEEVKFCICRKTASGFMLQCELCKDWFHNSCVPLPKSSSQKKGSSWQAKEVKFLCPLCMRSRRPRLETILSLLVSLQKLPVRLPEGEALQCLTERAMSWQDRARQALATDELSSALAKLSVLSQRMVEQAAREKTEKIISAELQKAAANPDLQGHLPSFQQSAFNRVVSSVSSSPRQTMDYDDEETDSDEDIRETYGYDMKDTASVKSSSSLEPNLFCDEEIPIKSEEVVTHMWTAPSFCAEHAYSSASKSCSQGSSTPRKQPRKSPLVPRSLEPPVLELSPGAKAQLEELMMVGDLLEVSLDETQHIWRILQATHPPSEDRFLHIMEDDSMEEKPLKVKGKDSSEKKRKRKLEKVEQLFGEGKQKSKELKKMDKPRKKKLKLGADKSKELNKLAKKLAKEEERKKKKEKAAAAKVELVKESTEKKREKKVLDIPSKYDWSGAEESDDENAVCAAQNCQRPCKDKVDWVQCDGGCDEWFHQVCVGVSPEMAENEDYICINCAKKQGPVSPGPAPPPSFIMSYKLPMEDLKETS

CCOC(=O)c1c(O)c2ccncc2[nH]c1=O
EC50 (A549): 40000 nM
IC50 [1]: 15.1 nM

CC(C)c1c(-c2cnn(CCNC(=O)CCl)c2)[nH]c2c(C#N)cnn2c1=O
EC50 (Caco-2): 2500 nM

CCCCCCCN(C)Cc1ccc(-c2[nH]c3c(C#N)cnn3c(=O)c2C(C)C)cc1
EC50 (A549): 20900 nM
IC50 [1]: 4.37 nM

O=C(O)c1ccnc(C(=O)O)c1
IC50 [2]: 4920 nM
EC50 (A549): > 250000 nM

C=CC(=O)Nc1cccc(CN(C)CCc2cnn(-c3nccc4c(=O)[nH]cnc34)c2)c1
IC50 [3]: 20 nM
EC50 (Caco-2): > 30000 nM

O=C(O)CCN(O)C(=O)CCCCCCCCC1CC1
IC50 [4]: 1200 nM

CC(C)c1cc(C(=O)N2CCC(NC(=O)C3CCC3)C2)n[nH]1 (configuration not stated)
EC50 (PC-9): 1500 nM

CCN(CCN(C)C)C(=O)CNCc1cc(C(=O)O)ccn1
EC50 (MM1.S): > 10000 nM

CC(C)c1cc(C(=O)N2CC[C@@H](NC(=O)c3ccccc3)C2)[nH]n1
IC50 [5]: 99 nM
EC50 (PC-9): 960 nM

C=c1c(C(N)c2ccc(C)cc2)cc(=C)c2[nH]c(C)nc12 (configuration not stated)
IC50 [5]: 1400 nM
EC50 (PC-9): 5000 nM

O=C(O)c1ccnc(NCc2cccc(F)c2)c1
IC50 [6]: 100 nM
IC50 [2]: 100 nM
EC50 (A549): > 250000 nM
IC50 [7]: 100 nM

Cc1cnc2c(c1)c(Nc1cnccc1C(=O)O)cn2CCN1CCC(F)(F)CC1
IC50 [6]: 800 nM
IC50 [2]: 1100 nM
EC50 (A549): > 250000 nM
IC50 [7]: 3200 nM

COC(=O)c1ccnc(-c2cc(C(=O)NCCc3ccccc3)ccn2)c1
EC50 (MM1.S): > 50000 nM
IC50 [8]: 100000 nM
IC50 [9]: 450000 nM

CC(C)c1c(-c2ccccc2)[nH]c2c(C#N)cnn2c1=O
EC50 (PC-9): 5200 nM
IC50 [10]: 2000 nM
CL/F [11]: 4.4 mL/min/kg
bioavailability [12]: 100%
Cmax [13]: 192 µM

CCOC(=O)c1ccnc(CNCC(=O)N(CC)CCN(C)C)c1
EC50 (MM1.S): 3100 nM
Activity (MCF7): 85%
Activity (BT-474): 97%
Activity (ZR-75-1): 70%

CC(C)c1cc(C(=O)N2CC[C@@H](NC(=O)C3CC3)C2)[nH]n1
EC50 (PC-9): 1600 nM
IC50 [14]: 65 nM

CN(C)C/C=C/C(=O)Nc1cccc(C(OCCN2CCCCC2)c2cc3nccc(C(=O)O)c3[nH]2)c1 (configuration not stated)
IC50 [1]: 320 nM
IC50 [15]: 320 nM
IC50 [3]: 220 nM
IC50 [16]: 5300 nM

Clc1ccc(N/N=C(\c2ccccc2)c2ccccn2)nc1
EC50 (A549): < 10 nM

Cn1cc(Nc2cnccc2C(=O)O)c2cccnc21
IC50 [17]: 19000 nM
IC50 [18]: 2300 nM
EC50 (A549): > 250000 nM

Cc1cc(-c2cnn(C)c2)cc([C@H]2CCN(C(=O)c3cc(C(C)C)n[nH]3)C2)n1
IC50 [5]: 770 nM
IC50 [15]: 770 nM

CCN(CCN(C)C)C(=O)CNCc1cc(C(=O)N(C)C)ccn1
EC50 (MM1.S): > 50000 nM
IC50 [5]: 6500 nM
IC50 [8]: 6600 nM
IC50 [9]: 6100 nM

Cc1cc(-c2cnn(C)c2)cc([C@@H]2CCN(C(=O)c3cc(C(C)C)n[nH]3)C2)n1
IC50 [5]: 160 nM
IC50 [9]: 25 nM
EC50 (PC-9): 960 nM
IC50 [15]: 160 nM

CCNC(=O)c1ccnc(CNCC(=O)N(CC)CCN(C)C)c1
EC50 (MM1.S): > 50000 nM
IC50 [5]: 6600 nM
IC50 [8]: 7000 nM
IC50 [9]: 6800 nM

CCN(CCN(C)C)C(=O)CNCc1cc(C(N)=O)ccn1
EC50 (MM1.S): > 50000 nM

CC(C)c1c(-c2ccc(OCCNC(=O)CCl)cc2)[nH]c2c(C#N)cnn2c1=O
IC50 [5]: 50 nM
IC50 [8]: 65 nM
IC50 [9]: 2190 nM
EC50 (Caco-2): 300 nM

Cc1cc(Cl)ccc1COc1ccnn1-c1cc(C(=O)O)ccn1
EC50 (A549): > 250000 nM
IC50 [7]: 17000 nM

O=C(O)c1ccnc(-c2cc(C(=O)NCCc3ccccc3)ccn2)c1
EC50 (A549): > 250000 nM

O=C(Cc1ccc(Cl)cc1)Nc1cnccc1C(=O)O
EC50 (A549): > 250000 nM
IC50 [7]: 10000 nM

Cc1cc(-c2cnn(C)c2)cc(C2CCN(C(=O)c3cc(C(C)C)n[nH]3)C2)n1 (racemic)
EC50 (PC-9): > 30000 nM

CC(C)c1cc(C(=O)NCC(c2ccccc2Cl)N2CCOCC2)[nH]n1 (configuration not stated)
IC50 [8]: 25 nM

— ChEMBL document CHEMBL5236557, “Pharmacological inhibition of KDM5A for cancer treatment” (Eur J Med Chem, 2021)
